Assay results taken from patent US9221827B2, “Antimicrobial compounds and methods of making and using the same” (Melinta Therapeutics, Inc., priority 2011, dated 2015).

Test system: Escherichia coli strain ATCC25922
Assay: standard microdilution assay to determine minimum inhibitory concentrations (MICs)
Type: cell-based
Settings: Escherichia coli strain ATCC25922, microdilution
Procedure, shortened: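 MICs come from CLSI-guided microdilution in 100 μl, run alongside reference-strain performance standards. Values appear as "+" or "−" relative to 16 micrograms/ml, with "N/A" marking missing data.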

Structure (SMILES)	E. coli ATCC25922 MIC
CC(CCN)Cc1cc(Cl)c(F)c(-c2cc3cn(-c4ccc(CNCCCNC(=N)N)cc4)c(=O)nc3[nH]2)c1 (centres unmarked) [Compound 132]	+ (a “+” indicates that the compound has an MIC value of 16 micrograms/ml or less)
Cc1cc(CCCCN)cc(-c2cc3cn(-c4ccc(CNCCCNC(=N)N)cc4)c(=O)nc3[nH]2)c1F [Compound 133]	+ (a “+” indicates that the compound has an MIC value of 16 micrograms/ml or less)
Cc1c(C#N)cc(CCCCN)cc1-c1cc2cn(-c3ccc(CNCCCNC(=N)N)cc3)c(=O)nc2[nH]1 [Compound 134]	+ (a “+” indicates that the compound has an MIC value of 16 micrograms/ml or less)
CCc1cc(CCCCN)cc(-c2cc3cn(-c4ccc(CNCCCNC(=N)N)cc4)c(=O)nc3[nH]2)c1F [Compound 135]	+ (a “+” indicates that the compound has an MIC value of 16 micrograms/ml or less)
N=C(N)NCCCNCc1ccc(-n2cc3cc(-c4cc(CCC5(CN)CC5)ccc4F)[nH]c3nc2=O)cc1 [Compound 136]	+ (a “+” indicates that the compound has an MIC value of 16 micrograms/ml or less)
N=C(N)NCCCNCc1ccc(-n2cc3cc(-c4cc(CCC5(CN)CC5)cc(OC(F)(F)F)c4)[nH]c3nc2=O)cc1 [Compound 137]	+ (a “+” indicates that the compound has an MIC value of 16 micrograms/ml or less)
N=C(N)NCCCNCc1ccc(-n2cc3cc(-c4cc(CCC5(CN)CCC5)cc(F)c4Cl)[nH]c3nc2=O)cc1 [Compound 138]	+ (a “+” indicates that the compound has an MIC value of 16 micrograms/ml or less)
N=C(N)NCCCNCc1ccc(-n2cc3cc(-c4cc(CCCCN)c(OC(F)F)cc4F)[nH]c3nc2=O)cc1 [Compound 139]	+ (a “+” indicates that the compound has an MIC value of 16 micrograms/ml or less)
CC(CN)CN1CC(NC(=O)Nc2nc(=O)c(-c3ccc(CNCCCNC(=N)N)cc3)c[nH]2)CC1COCc1c(Cl)cccc1Cl (centres unmarked) [Compound 150]	− (a “−” indicates that the compound has an MIC value greater than 16 micrograms/ml)
CNC[C@@H]1C[C@@H](NC(=O)Nc2nc(=O)c(-c3ccc(CNCCCNC(=N)N)cc3)c[nH]2)CN1C[C@@H](C)CN [Compound 151]	+ (a “+” indicates that the compound has an MIC value of 16 micrograms/ml or less)
COCCNC[C@@H]1C[C@@H](NC(=O)Nc2nc(=O)c(-c3ccc(CNCCCNC(=N)N)cc3)c[nH]2)CN1C[C@@H](C)CN [Compound 152]	+ (a “+” indicates that the compound has an MIC value of 16 micrograms/ml or less)
C[C@@H](CN)CN1C[C@H](NC(=O)Nc2nc(=O)c(-c3ccc(CNCCCNC(=N)N)cc3)c[nH]2)C[C@H]1CNCCC1CC1 [Compound 153]	+ (a “+” indicates that the compound has an MIC value of 16 micrograms/ml or less)
N=C(N)NCCCNCc1ccc(-c2c[nH]c(NC(=O)Nc3ccc(C4CC4)cc3OCCCN)nc2=O)cc1 [Compound 184]	+ (a “+” indicates that the compound has an MIC value of 16 micrograms/ml or less)
COc1cccc(OCCCN)c1NC(=O)Nc1nc(=O)c(-c2ccc(CNCCCNC(=N)N)cc2)c[nH]1 [Compound 185]	− (a “−” indicates that the compound has an MIC value greater than 16 micrograms/ml)
CC(C)c1cccc(OCCCN)c1NC(=O)Nc1nc(=O)c(-c2ccc(CNCCCNC(=N)N)cc2)c[nH]1 [Compound 186]	− (a “−” indicates that the compound has an MIC value greater than 16 micrograms/ml)
N=C(N)NCCCNCc1ccc(-c2c[nH]c(NC(=O)Nc3c(Cl)cccc3OCCCN)nc2=O)cc1 [Compound 187]	− (a “−” indicates that the compound has an MIC value greater than 16 micrograms/ml)

Structure (SMILES)	E. coli ATCC25922 MIC
N=C(N)NCCCNCc1ccc(-c2c[nH]c(NC(=O)Nc3cc(C(F)F)ccc3OCCCN)nc2=O)cc1 [Compound 188]	+ (a “+” indicates that the compound has an MIC value of 16 micrograms/ml or less)
N=C(N)NCCCNCc1ccc(-c2c[nH]c(NC(=O)Nc3c(OCCCN)cccc3C3CC3)nc2=O)cc1 [Compound 189]	− (a “−” indicates that the compound has an MIC value greater than 16 micrograms/ml)
N=C(N)NCCCNCc1ccc(-c2c[nH]c(NC(=O)Nc3c(CO)cccc3OCCCN)nc2=O)cc1 [Compound 190]	− (a “−” indicates that the compound has an MIC value greater than 16 micrograms/ml)
Cc1c(-c2cc3cn(-c4ccc(CNCCCNC(=N)N)cc4)c(=O)nc3[nH]2)cc(CCCCN)cc1C(F)(F)F [Compound 212]	+ (a “+” indicates that the compound has an MIC value of 16 micrograms/ml or less)
N=C(N)NCCCNCc1ccc(-n2cc3cc(-c4cc(CCCCN)cc(OC(F)F)c4Cl)[nH]c3nc2=O)cc1 [Compound 214]	+ (a “+” indicates that the compound has an MIC value of 16 micrograms/ml or less)
COC(CCCN)c1cc(OC(F)(F)F)cc(-c2cc3cn(-c4ccc(CNCCCNC(=N)N)cc4)c(=O)nc3[nH]2)c1 (centres unmarked) [Compound 216]	+ (a “+” indicates that the compound has an MIC value of 16 micrograms/ml or less)
CCc1cc(CCCCN)cc(-c2cc3cn(-c4ccc(CNCCCNC(=N)N)cc4)c(=O)nc3[nH]2)c1Cl [Compound 217]	+ (a “+” indicates that the compound has an MIC value of 16 micrograms/ml or less)
N=C(N)NCCCNCc1ccc(-n2cc3cc(-c4cc(CCCCN)cc(F)c4C(F)(F)F)[nH]c3nc2=O)cc1 [Compound 218]	+ (a “+” indicates that the compound has an MIC value of 16 micrograms/ml or less)
Cc1cc(CCCC(C)N)cc(-c2cc3cn(-c4ccc(CNCCCNC(=N)N)cc4)c(=O)nc3[nH]2)c1F (centres unmarked) [Compound 219]	+ (a “+” indicates that the compound has an MIC value of 16 micrograms/ml or less)
N=C(N)NCCCNCc1ccc(-n2cc3cc(-c4cc(CCCCN)cc([S+]([O-])C(F)(F)F)c4Cl)[nH]c3nc2=O)cc1 (centres unmarked) [Compound 220]	+ (a “+” indicates that the compound has an MIC value of 16 micrograms/ml or less)
N=C(N)NCCCNCc1ccc(-n2cc3cc(-c4cc(CCCCN)cc(OC(F)(F)F)c4)[nH]c3nc2=O)cc1 [Compound 221]	+ (a “+” indicates that the compound has an MIC value of 16 micrograms/ml or less)
Cc1cc(CCCCN)cc(-c2cc3cn(-c4ccc(CNCCCNC(=N)N)cc4)c(=O)nc3[nH]2)c1C(F)(F)F [Compound 222]	+ (a “+” indicates that the compound has an MIC value of 16 micrograms/ml or less)
N=C(N)NCCCNCc1ccc(-n2cc3cc(-c4cc(CCC5(CN)CC5)cc(F)c4Cl)[nH]c3nc2=O)cc1 [Compound 223]	+ (a “+” indicates that the compound has an MIC value of 16 micrograms/ml or less)
N=C(N)NCCCNCc1ccc(-n2cc3cc(-c4cc(CCCN)cc(Cl)c4Cl)[nH]c3nc2=O)cc1 [Compound 224]	+ (a “+” indicates that the compound has an MIC value of 16 micrograms/ml or less)
N=C(N)NCCCNCc1ccc(-n2cc3cc(-c4cc(CCCN)cc(OC(F)(F)F)c4Cl)[nH]c3nc2=O)cc1 [Compound 225]	+ (a “+” indicates that the compound has an MIC value of 16 micrograms/ml or less)
N=C(N)NCCCNCc1ccc(-n2cc3cc(-c4cc(CCCCN)cc(Cl)c4C(F)(F)F)[nH]c3nc2=O)cc1 [Compound 226]	+ (a “+” indicates that the compound has an MIC value of 16 micrograms/ml or less)
